According to patent US20090170812A1, “Transcription factor modulating compounds and methods of use thereof” (priority 2006, published 2009):

Columns and labels:
[1] = biological target: LcrF (VirF) (Yersinia pestis, UniProt P28808); assay: biochemical; type: binding, Y. pseudotuberculosis
[2] = biological target: T1, ExsA (Pseudomonas aeruginosa, UniProt P26993); assay: In vitro activity of Mar inhibitors against ExsA: cell-free DNA binding assay; settings: purified ExsA from P. aeruginosa, inhibition of DNA binding in vitro
T1 construct: made in house
T1 sequence (P26993 1-278): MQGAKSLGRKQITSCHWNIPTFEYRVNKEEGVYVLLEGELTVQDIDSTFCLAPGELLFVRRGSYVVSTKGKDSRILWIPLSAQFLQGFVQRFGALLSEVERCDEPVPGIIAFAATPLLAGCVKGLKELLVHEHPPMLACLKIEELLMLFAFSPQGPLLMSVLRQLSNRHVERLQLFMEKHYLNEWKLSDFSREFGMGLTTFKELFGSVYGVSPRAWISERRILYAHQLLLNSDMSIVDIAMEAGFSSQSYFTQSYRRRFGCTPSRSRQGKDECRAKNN

[3] = test system: Yersinia pseudotuberculosis
[4] = test system: P. aeruginosa; assay: Whole cell assay: cytotoxicity of P. aeruginosa toward J774 cells (CytoTox 96, LDH release); settings: percent cytotoxicity of treated P. aeruginosa toward J774 cells

LcrF (VirF), sequence (P28808 whole entry, looked up): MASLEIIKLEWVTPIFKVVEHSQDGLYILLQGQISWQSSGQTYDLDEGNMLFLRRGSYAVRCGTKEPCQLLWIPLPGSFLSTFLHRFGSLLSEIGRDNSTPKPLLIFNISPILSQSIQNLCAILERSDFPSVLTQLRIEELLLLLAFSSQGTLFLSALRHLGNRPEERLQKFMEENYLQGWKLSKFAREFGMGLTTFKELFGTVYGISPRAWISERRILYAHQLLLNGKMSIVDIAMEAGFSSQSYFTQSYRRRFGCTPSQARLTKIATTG

Row | SMILES | EC50 [1] [µM] | EC50 [2] [µM] | Cytotoxicity at 50 μg/mL Yersinia [3] | Cytotoxicity at 50 μg/mL Pseudomonas [4]
1 | O=C(/C=C/c1ccc(-n2cncn2)cc1)Nc1ccc(-c2nc3ccc([N+](=O)[O-])cc3n2O)cc1 [Compound BI, (E)-N-[4-(1-Hydroxy-6-nitro-1H-benzoimidazol-2-yl)-phenyl]-3-(4-[1,2,4]triazol-1-yl-phenyl)-acrylamide] | > 25.1 | < 10 | ** (key: *: percent cytotoxicity above 75% at 50 μg/mL; **: cytotoxicities below 75% at 50 μg/mL) | ** (cytotoxicities below 75% at 50 mg/mL)
2 | CCOc1cc2nc(-c3ccc(NC(=O)/C=C/c4ccc(F)cc4)cc3)n(O)c2cc1[N+](=O)[O-] [Compound BJ, (E)-N-[4-(5-Ethoxy-1-hydroxy-6-nitro-1H-benzoimidazol-2-yl)-phenyl]-3-(4-fluoro-phenyl)-acrylamide] | 10.1 to 25 | < 10 | ** (key: *: percent cytotoxicity above 75% at 50 μg/mL; **: cytotoxicities below 75% at 50 μg/mL) | ** (cytotoxicities below 75% at 50 mg/mL)
3 | Cc1cc2nc(-c3ccc(NC(=O)c4ccc(-c5cnco5)cc4)cc3)n(O)c2cc1[N+](=O)[O-] [Compound BL, N-[4-(1-Hydroxy-5-methyl-6-nitro-1H-benzoimidazol-2-yl)-phenyl]-4-oxazol-5-yl-benzamide] | > 25.1 | < 10 | ** (key: *: percent cytotoxicity above 75% at 50 μg/mL; **: cytotoxicities below 75% at 50 μg/mL) | ** (cytotoxicities below 75% at 50 mg/mL)
4 | CN(C)c1cc2nc(-c3ccc(NC(=O)/C=C/c4ccc(F)cc4)cc3)n(O)c2cc1[N+](=O)[O-] [Compound BN, N-[4-(5-Dimethylamino-1-hydroxy-6-nitro-1H-benzoimidazol-2-yl)-phenyl]-3-(4-fluorocinnamyl)-amide] | > 25.1 | 10.1 to 25 | ** (key: *: percent cytotoxicity above 75% at 50 μg/mL; **: cytotoxicities below 75% at 50 μg/mL) | ** (cytotoxicities below 75% at 50 mg/mL)
5 | N#Cc1ccc2nc(-c3ccc(NC(=O)/C=C/c4ccc(F)cc4)cc3)n(O)c2c1 [Compound B] | < 10 | < 10 | ** (key: *: percent cytotoxicity above 75% at 50 μg/mL; **: cytotoxicities below 75% at 50 μg/mL) | ** (cytotoxicities below 75% at 50 mg/mL)
6 | CC(=O)c1ccc(C(=O)Nc2ccc(-c3nc4ccc(C#N)cc4n3O)cc2)cc1 [Compound C] | > 25.1 | < 10 | ** (key: *: percent cytotoxicity above 75% at 50 μg/mL; **: cytotoxicities below 75% at 50 μg/mL) | ** (cytotoxicities below 75% at 50 mg/mL)
7 | N#Cc1ccc(C(=O)Nc2ccc(-c3nc4ccc(C#N)cc4n3O)cc2)cc1 [D] | < 10 | < 10 | ** (key: *: percent cytotoxicity above 75% at 50 μg/mL; **: cytotoxicities below 75% at 50 μg/mL) | * (percent cytotoxicities above 75% at 50 mg/mL)
8 | Cc1ccc(/C=C/C(=O)Nc2ccc(-c3nc4ccc(C#N)cc4n3O)cc2)cc1 [E] | 10.1 to 25 | < 10 | ** (key: *: percent cytotoxicity above 75% at 50 μg/mL; **: cytotoxicities below 75% at 50 μg/mL) | * (percent cytotoxicities above 75% at 50 mg/mL)
9 | O=C(Nc1ccc(-c2nc3ccc([N+](=O)[O-])cc3n2O)cc1)/C(=C/c1ccccc1)c1ccccc1 [F] | < 10 | 10.1 to 25 | * (key: *: percent cytotoxicity above 75% at 50 μg/mL; **: cytotoxicities below 75% at 50 μg/mL) | ** (cytotoxicities below 75% at 50 mg/mL)
10 | O=C(Nc1ccc(-c2nc3ccc([N+](=O)[O-])cc3n2O)cc1)/C(F)=C/c1ccccc1 [G] | 10.1 to 25 | < 10 | * (key: *: percent cytotoxicity above 75% at 50 μg/mL; **: cytotoxicities below 75% at 50 μg/mL) | ** (cytotoxicities below 75% at 50 mg/mL)
